Reference: patent US20220411439A1, “POLYMORPHS OF A MACROCYCLIC KINASE INHIBITOR” (TURNING POINT THERAPEUTICS, INC., priority 2019, published 2022)

Experiments:
[1] = target: T1, Ba/F3 KIF5B-RET_V804M (Homo sapiens, UniProt P07949, V804M, cells depend on it); test: Cell proliferation assay (CellTiter-Glo); format: cell-based; details: anti-cell proliferation, 72 hours; read-out: Ba/F3 KIF5B-RET_V804M IC50
T1 construct: fused on or other part: P33176 (Kinesin-1 heavy chain)
Description: (§1) The KIF5B-RET gene was synthesized at GenScript and cloned into pCDH-CMV-MCS-EF1-Puro plasmid (System Biosciences, Inc). KIF5B-RET point mutation V804M and G810C were generated at GenScript by PCR and confirmed by sequencing. Ba/F3-KIF5B-RET wild type and mutant were generated by transducing Ba/F3 cells with lentivirus containing KIF5B-RET wide type or mutant. Stable cell lines were selected by puromycin treatment, followed by IL-3 withdrawal. Briefly, 5×10^6 Ba/F3 cells were transduced with lentivirus supernatant in the presence of 8 μg/mL protamine sulfate. The transduced cells were subsequently selected with 1 μg/mL puromycin in the presence of IL3-containing medium RPMI1640, plus 10% FBS. After 10-12 days of selection, the surviving cells were further selected for […] independent growth.
(§2) Two thousand cells per well were seeded in 384 well white plate for 24 hrs, and then treated with compounds for 72 hours (37° C., 5% CO2). Cell proliferation was measured using CellTiter-Glo luciferase-based ATP detection assay (Promega) following the manufactures's protocol. IC50 determinations were performed using GraphPad Prism software (GraphPad, Inc., San Diego, Calif.).

[2] = target: T2, Ba/F3 KIF5B-RET (Homo sapiens, UniProt P07949); test: Cell proliferation assay (CellTiter-Glo); format: cell-based; details: anti-cell proliferation, 72 hours; read-out: Ba/F3 KIF5B-RET IC50
T2 construct: Ba/F3 KIF5B-RET IC50 (nM); other: anti-cell proliferation, 72 hours; fused on or other part: P33176 (Kinesin-1 heavy chain)
Description: as §1, §2

[3] = target: T3, RET (R749T) (Homo sapiens, UniProt P07949, R749T); test: Biochemical kinase assay; details: 10 μM ATP
T3 construct: purchased Reaction Biology Corporation (contract assay)
Method: (§3) The biochemical kinase assay was performed at Reaction Biology Corporation (www.reactionbiology.com, Malvern, Pa.) following the procedures described in the reference (Anastassiadis T, et al Nat Biotechnol. 2011, 29, 1039). Specific kinase/substrate pairs along with required cofactors were prepared in reaction buffer; 20 mM Hepes pH 7.5, 10 mM MgCl2, 1 mM EGTA, 0.02% Brij35, 0.02 mg/ml BSA, 0.1 mM Na3VO4, 2 mM DTT, 1% DMSO. Compounds were delivered into the reaction, followed ˜20 minutes later by addition of a mixture of ATP (Sigma, St. Louis Mo.) and ^33P ATP (Perkin Elmer, Waltham Mass.) to a final concentration of 10 μM. Reactions were carried out at room temperature for 120 min, followed by spotting of the reactions onto P81 ion exchange filter paper (Whatman Inc., Piscataway, N.J.). Unbound phosphate was removed by extensive washing of filters in 0.75% phosphoric acid. […] IC50 values and curve fits were obtained using Prism (GraphPad Software).

[4] = target: T4, RET (S891A) (Homo sapiens, UniProt P07949, S891A); test: Biochemical kinase assay; details: 10 μM ATP
T4 construct: purchased Reaction Biology Corporation (contract assay)
Method: as §3

[5] = target: T5, RET (V804M) (Homo sapiens, UniProt P07949, V804M); test: Biochemical kinase assay; details: 10 μM ATP
T5 construct: purchased Reaction Biology Corporation (contract assay)
Method: as §3

[6] = target: T6, RET (Y806H) (Homo sapiens, UniProt P07949, Y806H); test: Biochemical kinase assay; details: 10 μM ATP
T6 construct: purchased Reaction Biology Corporation (contract assay)
Method: as §3

[7] = target: T7, RET (S904A) (Homo sapiens, UniProt P07949, S904A); test: Biochemical kinase assay; details: 10 μM ATP
T7 construct: purchased Reaction Biology Corporation (contract assay)
Method: as §3

[8] = target: T8, RET (S904F) (Homo sapiens, UniProt P07949, S904F); test: Biochemical kinase assay; details: 10 μM ATP
T8 construct: purchased Reaction Biology Corporation (contract assay)
Method: as §3

[9] = target: T9, RET (A883F) (Homo sapiens, UniProt P07949, A883F); test: Biochemical kinase assay; details: 10 μM ATP
T9 construct: purchased Reaction Biology Corporation (contract assay)
Method: as §3

[10] = target: T10, RET (G691S) (Homo sapiens, UniProt P07949, G691S); test: Biochemical kinase assay; details: 10 μM ATP
T10 construct: purchased Reaction Biology Corporation (contract assay)
Method: as §3

[11] = target: T11, RET (E762Q) (Homo sapiens, UniProt P07949, E762Q); test: Biochemical kinase assay; details: 10 μM ATP
T11 construct: purchased Reaction Biology Corporation (contract assay)
Method: as §3

[12] = target: T12, RET (V804L) (Homo sapiens, UniProt P07949, V804L); test: Biochemical kinase assay; details: 10 μM ATP
T12 construct: purchased Reaction Biology Corporation (contract assay)
Method: as §3

[13] = target: T13, RET (L790F) (Homo sapiens, UniProt P07949, L790F); test: Biochemical kinase assay; details: 10 μM ATP
T13 construct: purchased Reaction Biology Corporation (contract assay)
Method: as §3

[14] = target: T14, RET-CCDC6 (PTC1) (Homo sapiens, UniProt P07949); test: Biochemical kinase assay; details: 10 μM ATP
T14 construct: CCDC6 fragment (fusion partner); purchased Reaction Biology Corporation (contract assay); the other entry of the earlier key: CCDC6 (Q16204, Coiled-coil domain-containing protein 6)
Method: as §3

[15] = target: T15, RET (V778I) (Homo sapiens, UniProt P07949, V778I); test: Biochemical kinase assay; details: 10 μM ATP
T15 construct: purchased Reaction Biology Corporation (contract assay)
Method: as §3

[16] = target: T16, RET (R813Q) (Homo sapiens, UniProt P07949, R813Q); test: Biochemical kinase assay; details: 10 μM ATP
T16 construct: purchased Reaction Biology Corporation (contract assay)
Method: as §3

[17] = target: T17, RET (Y791F) (Homo sapiens, UniProt P07949, Y791F); test: Biochemical kinase assay; details: 10 μM ATP
T17 construct: purchased Reaction Biology Corporation (contract assay)
Method: as §3

[18] = target: T18, RET (M918T) (Homo sapiens, UniProt P07949, M918T); test: Biochemical kinase assay; details: 10 μM ATP
T18 construct: purchased Reaction Biology Corporation (contract assay)
Method: as §3

[19] = target: T19, RET (V804E) (Homo sapiens, UniProt P07949, V804E); test: Biochemical kinase assay; details: 10 μM ATP
T19 construct: purchased Reaction Biology Corporation (contract assay)
Method: as §3

T9 sequence (P07949 29-1114 A883F): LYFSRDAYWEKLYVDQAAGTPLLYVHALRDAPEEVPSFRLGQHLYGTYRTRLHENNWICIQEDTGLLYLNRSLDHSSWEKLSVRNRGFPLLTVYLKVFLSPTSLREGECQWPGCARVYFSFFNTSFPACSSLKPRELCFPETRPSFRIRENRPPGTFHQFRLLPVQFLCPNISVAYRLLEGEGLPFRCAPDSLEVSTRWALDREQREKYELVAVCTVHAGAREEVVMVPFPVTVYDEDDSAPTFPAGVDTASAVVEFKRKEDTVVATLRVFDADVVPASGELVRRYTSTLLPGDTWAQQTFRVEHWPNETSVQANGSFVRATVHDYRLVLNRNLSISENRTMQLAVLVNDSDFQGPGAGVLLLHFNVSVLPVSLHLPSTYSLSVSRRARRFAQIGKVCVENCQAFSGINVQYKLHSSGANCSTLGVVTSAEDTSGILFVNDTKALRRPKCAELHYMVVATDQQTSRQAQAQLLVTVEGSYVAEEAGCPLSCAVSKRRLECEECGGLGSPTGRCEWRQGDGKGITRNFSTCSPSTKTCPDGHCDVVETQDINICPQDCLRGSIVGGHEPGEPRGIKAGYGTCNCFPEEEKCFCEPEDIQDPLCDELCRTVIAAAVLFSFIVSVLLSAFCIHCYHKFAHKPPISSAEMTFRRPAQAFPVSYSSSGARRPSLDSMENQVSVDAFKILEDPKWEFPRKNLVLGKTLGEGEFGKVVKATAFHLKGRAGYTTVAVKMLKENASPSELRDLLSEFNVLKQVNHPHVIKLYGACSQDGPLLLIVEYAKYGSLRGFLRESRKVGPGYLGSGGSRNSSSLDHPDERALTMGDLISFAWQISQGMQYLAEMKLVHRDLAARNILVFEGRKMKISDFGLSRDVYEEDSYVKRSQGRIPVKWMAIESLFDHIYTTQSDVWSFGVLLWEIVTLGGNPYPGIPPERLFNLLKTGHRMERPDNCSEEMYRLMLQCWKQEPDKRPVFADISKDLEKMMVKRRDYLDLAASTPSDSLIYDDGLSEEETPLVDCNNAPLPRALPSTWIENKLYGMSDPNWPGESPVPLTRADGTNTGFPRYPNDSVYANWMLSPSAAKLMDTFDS
T3 sequence (P07949 29-1114 R749T): as the sequence (P07949 29-1114 A883F) above, with R721T, F855A counted along it
T1 sequence (P07949 whole entry V804M, the tested form may be a part): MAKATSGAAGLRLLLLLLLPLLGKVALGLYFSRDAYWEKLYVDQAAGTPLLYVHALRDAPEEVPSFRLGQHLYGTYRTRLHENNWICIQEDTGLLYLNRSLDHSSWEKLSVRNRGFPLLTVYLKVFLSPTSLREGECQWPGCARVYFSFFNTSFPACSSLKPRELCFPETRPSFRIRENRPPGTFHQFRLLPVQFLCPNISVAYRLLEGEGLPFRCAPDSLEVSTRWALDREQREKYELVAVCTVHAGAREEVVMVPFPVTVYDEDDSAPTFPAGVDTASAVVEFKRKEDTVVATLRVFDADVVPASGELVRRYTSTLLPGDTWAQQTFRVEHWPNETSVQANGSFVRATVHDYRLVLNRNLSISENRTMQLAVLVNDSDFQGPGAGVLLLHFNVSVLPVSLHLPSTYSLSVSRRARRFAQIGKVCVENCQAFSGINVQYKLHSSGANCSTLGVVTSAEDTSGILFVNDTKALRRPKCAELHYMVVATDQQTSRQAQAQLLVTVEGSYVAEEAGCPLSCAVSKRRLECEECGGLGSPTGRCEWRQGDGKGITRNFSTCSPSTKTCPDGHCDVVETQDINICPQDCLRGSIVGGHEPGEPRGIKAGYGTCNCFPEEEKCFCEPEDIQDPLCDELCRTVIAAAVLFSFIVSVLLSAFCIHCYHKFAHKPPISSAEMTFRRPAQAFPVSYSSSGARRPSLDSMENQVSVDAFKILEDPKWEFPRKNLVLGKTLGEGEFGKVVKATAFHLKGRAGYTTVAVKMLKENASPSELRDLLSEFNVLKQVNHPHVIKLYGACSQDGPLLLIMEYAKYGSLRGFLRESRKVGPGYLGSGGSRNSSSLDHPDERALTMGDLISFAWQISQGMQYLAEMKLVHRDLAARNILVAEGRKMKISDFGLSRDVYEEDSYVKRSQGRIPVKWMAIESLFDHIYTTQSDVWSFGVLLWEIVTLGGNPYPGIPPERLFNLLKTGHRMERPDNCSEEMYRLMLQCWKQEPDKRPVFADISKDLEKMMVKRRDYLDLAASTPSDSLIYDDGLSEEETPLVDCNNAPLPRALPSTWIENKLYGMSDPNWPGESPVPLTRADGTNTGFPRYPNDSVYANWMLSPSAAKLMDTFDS
T15 sequence (P07949 29-1114 V778I): as the sequence (P07949 29-1114 A883F) above, with V750I, F855A counted along it
T19 sequence (P07949 29-1114 V804E): as the sequence (P07949 29-1114 A883F) above, with V776E, F855A counted along it
T16 sequence (P07949 29-1114 R813Q): as the sequence (P07949 29-1114 A883F) above, with R785Q, F855A counted along it
T13 sequence (P07949 29-1114 L790F): as the sequence (P07949 29-1114 A883F) above, with L762F, F855A counted along it
T7 sequence (P07949 29-1114 S904A): as the sequence (P07949 29-1114 A883F) above, with F855A, S876A counted along it
T6 sequence (P07949 29-1114 Y806H): as the sequence (P07949 29-1114 A883F) above, with Y778H, F855A counted along it
T2 sequence (P07949 whole entry, change not shown, the tested form may be a part): as the sequence (P07949 whole entry V804M, the tested form may be a part) above, with M804V counted along it
T8 sequence (P07949 29-1114 S904F): as the sequence (P07949 29-1114 A883F) above, with F855A, S876F counted along it
T10 sequence (P07949 29-1114 G691S): as the sequence (P07949 29-1114 A883F) above, with G663S, F855A counted along it
T14 sequence (P07949 with tags, fused parts or gaps): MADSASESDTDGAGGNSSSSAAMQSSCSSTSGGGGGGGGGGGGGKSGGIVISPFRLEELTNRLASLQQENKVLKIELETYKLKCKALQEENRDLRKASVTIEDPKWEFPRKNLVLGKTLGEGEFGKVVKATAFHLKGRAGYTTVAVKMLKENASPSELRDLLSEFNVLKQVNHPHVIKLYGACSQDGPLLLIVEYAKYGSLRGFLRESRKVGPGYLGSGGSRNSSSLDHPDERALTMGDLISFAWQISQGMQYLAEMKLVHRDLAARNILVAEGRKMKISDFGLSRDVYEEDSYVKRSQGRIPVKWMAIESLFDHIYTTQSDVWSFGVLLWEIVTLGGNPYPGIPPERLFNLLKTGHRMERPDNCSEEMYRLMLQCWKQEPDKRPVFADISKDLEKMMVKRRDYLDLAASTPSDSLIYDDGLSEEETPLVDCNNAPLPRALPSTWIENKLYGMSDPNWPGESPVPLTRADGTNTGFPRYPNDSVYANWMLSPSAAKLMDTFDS
T18 sequence (P07949 29-1114 M918T): as the sequence (P07949 29-1114 A883F) above, with F855A, M890T counted along it
T4 sequence (P07949 29-1114 S891A): as the sequence (P07949 29-1114 A883F) above, with F855A, S863A counted along it
T12 sequence (P07949 29-1114 V804L): as the sequence (P07949 29-1114 A883F) above, with V776L, F855A counted along it
T17 sequence (P07949 29-1114 Y791F): as the sequence (P07949 29-1114 A883F) above, with Y763F, F855A counted along it
T5 sequence (P07949 29-1114 V804M): as the sequence (P07949 29-1114 A883F) above, with V776M, F855A counted along it
T11 sequence (P07949 29-1114 E762Q): as the sequence (P07949 29-1114 A883F) above, with E734Q, F855A counted along it

**Q.** What does the source list for C[C@H]1CNC(=O)c2cnn3cc4c(nc23)N(Cc2cc(F)cnc2O1)[C@@H]1CCC[C@@H]1O4 [Compound I, (3aR,11S,20aS)-7-fluoro-11-methyl-2,3,3a,12,13,20a-hexahydro-1H,5H-17,19-(metheno)cyclopenta[5,6][1,4]oxazino[3,4-i]pyrazolo[4,3-f]pyrido[3,2-l][1,4,8,10]oxatriazacyclotridecin-14(11H)-one]?
**A.** GI50 [1]: 1000 nM; GI50 [2]: 0.25 nM; IC50 [3]: 0.8 nM; IC50 [4]: 0.2 nM; IC50 [5]: 8.1 nM; IC50 [6]: 2.6 nM; IC50 [7]: 0.9 nM; IC50 [8]: 0.5 nM; IC50 [9]: 1.2 nM; IC50 [10]: 1.8 nM; IC50 [11]: 1 nM; IC50 [12]: 6.2 nM; IC50 [13]: 0.4 nM; IC50 [14]: 0.5 nM; IC50 [15]: 0.1 nM; IC50 [16]: 1.7 nM; IC50 [17]: 0.4 nM; IC50 [18]: 0.3 nM; IC50 [19]: > 1000 nM
